Measurements: EP2975030B1, “DIHYDROPYRIDAZINE-3,5-DIONE DERIVATIVE” (Chugai Seiyaku Kabushiki Kaisha, priority 2013, dated 2014)

test system: rat small-intestinal brush border membrane vesicles; assay: Inhibitory effect on 33PO4 uptake into rat small-intestinal brush border membrane vesicles (rapid filtration method); assay type: biochemical, Wistar female rat; conditions: 1 µM test compound; 33PO4 uptake into rat small-intestinal BBMVs, 60 seconds
Outline: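 Uptake was terminated by ice-cold 110 mM NaCl, 1 mM KH2PO4, 10 mM HEPES (pH 7.5) buffer and immediate suction filtration, then washing. Using rat small-intestinal BBMVs, retained 33PO4 was quantified by liquid scintillation counting as transport activity.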

Point of comparison: `C[C@]12CCCN1N(Cc1ccc(F)c(Br)c1)C(=O)C(C(=O)Nc1ccc(C(F)(F)F)cc1-c1cc(C(F)(F)F)ncn1)=C2O` [Example 184], “Rate of uptake inhibition (%) (1 µM)” value 79%. Against it:
- CN1N(Cc2ccc(OCCN3CCN(CCOCCO)CC3)c(F)c2F)C(=O)C(C(=O)Nc2ccc(C(F)(F)F)cc2-c2cc(C(F)(F)F)ncn2)=C(O)C12CCCC2 [Example 378] — lower, 35%
- CN1N(Cc2cccc(F)c2F)C(=O)C(C(=O)Nc2ccc(Br)c(C(F)(F)F)n2)=C(O)C12CCCC2 [Example 263] — lower, 66%
- CN1N(Cc2ccc(OCCOCCOCCOCCNC(=O)[C@@H](O)[C@H](O)[C@@H](O)[C@@H](O)CO)c(F)c2F)C(=O)C(C(=O)Nc2ccc(C(F)(F)F)cc2-c2cc(C(F)(F)F)ncn2)=C(O)C12CCCC2 [Example 428, 7-[[2,3-Difluoro-4-[2-[2-[2-[2-[[(2S,3R,4S,5S)-2,3,4,5,6-pentahydroxyhexanoyl]amino]ethoxy]ethoxy]ethoxy]ethoxy]phenyl]methyl]-10-hydroxy-6-methyl-8-oxo-N-[4-(trifluoromethyl)-2-[6-(trifluoromethyl)pyrimidin-4-yl]phenyl]-6,7-diazaspiro[4.5]dec-9-ene-9-carboxamide] — lower, 14%
- C[C@]12CCCN1N(Cc1cc(Cl)ccc1F)C(=O)C(C(=O)Nc1ccc(C(F)(F)F)cc1-c1cc(C(F)(F)F)ncn1)=C2O [Example 211] — lower, 72%
- COc1cccc(-c2cc(C(F)(F)F)ccc2NC(=O)C2=C(O)[C@@]3(C)CCCN3N(Cc3ccc(C#CCCCO)c(F)c3F)C2=O)c1OC [Example 138] — higher, 93%
- CN1N(Cc2cccc(F)c2F)C(=O)C(C(=O)Nc2ccc(C(F)(F)F)nc2-c2ccc(C(F)(F)F)nc2)=C(O)C1(C)C [Example 304] — lower, 51%
- COc1cc(CN2C(=O)C(C(=O)Nc3ccc(C(F)(F)F)cc3-c3ccc(C(F)(F)F)nc3)=C(O)[C@@]3(C)CCCN23)cc(OC)c1 [Example 202] — lower, 75%
- CC(=O)N(C)CCN(C)CCOc1ccc(CN2C(=O)C(C(=O)Nc3ccc(C(F)(F)F)cc3-c3cc(C(F)(F)F)ncn3)=C(O)C3(CCC3)N2C)c(F)c1F [Example 354] — lower, 31%
- C[C@]12CCCN1N(Cc1c(F)cc(C#CCN3CCOCC3)cc1F)C(=O)C(C(=O)Nc1ccc(C(F)(F)F)cc1-c1ccc(C(F)(F)F)nc1)=C2O [Example 132] — lower, 71%
- C[C@]12CCCN1N(Cc1cc(F)ccc1F)C(=O)C(C(=O)Nc1cc(F)c(Br)c(F)c1)=C2O [Example 193] — higher, 82%
- CN1N(Cc2ccc(OCCN3CCOCC3(C)C)c(F)c2F)C(=O)C(C(=O)Nc2ccc(C(F)(F)F)cc2-c2cc(C(F)(F)F)ncn2)=C(O)C12CCCC2 [Example 371] — lower, 38%
- CN1N(Cc2ccc(OCCN3CCOC(=O)C3)c(F)c2F)C(=O)C(C(=O)Nc2ccc(C(F)(F)F)cc2-c2cc(C(F)(F)F)ncn2)=C(O)C12CCC2 [Example 337, 8-[[2,3-Difluoro-4-[2-(2-oxomorpholin-4-yl)ethoxy]phenyl]methyl]1-5-hydroxy-9-methyl-7-oxo-N-[4-(trifluoromethyl)-2[6-(trifluoromethyl)pyrimidin-4-yl]phenyl]-8,9-diazaspiro[3.5]non-5-ene-6-carboxamide] — lower, 47%
- C[C@]12CCCN1N(Cc1cccc(F)c1F)C(=O)C(C(=O)Nc1ccc(Cl)cc1F)=C2O [Example 76] — lower, 77%
- C[C@]12CCCN1N(Cc1cc(F)cc(F)c1)C(=O)C(C(=O)Nc1ccc(C(F)(F)F)cc1-c1cc(C(F)(F)F)ncn1)=C2O [Example 213] — the same, 79%
- (4aR)-4a-Ethyl-1-[(3-fluorophenyl)methyl]-4-hydroxy-N-[5-methyl-2-(trifluoromethyl)furan-3-yl]-2-oxo-6,7-dihydro-5H-pyrrolo[1,2-b]pyridazine-3-carboxamide [Example 9] — lower, 63%
- C[C@]12CCCN1N(Cc1c(Cl)cc(OCCN3CCOCC3)cc1Cl)C(=O)C(C(=O)Nc1cnc(C(F)(F)F)nc1-c1ccc(C(F)(F)F)nc1)=C2O.Cl [Example 146, (4aR)-1-[[2,6-Dichloro-4-(2-morpholin-4-ylethoxy)phenyl]methyl]-4-hydroxy-4a-methyl-2-oxo-N-[2-(trifluoromethyl)-4-[6-(trifluoromethyl)pyridin-3-yl]pyrimidin-5-yl]-6,7-dihydro-5H-pyrrolo[1,2-b]pyridazine-3-carboxamide hydrochloride] — lower, 71%
- CN1N(Cc2ccc(OCCNC(CC(=O)O)CC(=O)O)c(F)c2F)C(=O)C(C(=O)Nc2ccc(C(F)(F)F)cc2-c2cc(C(F)(F)F)ncn2)=C(O)C12CCCC2 [Example 382, 3-[2-[2,3-Difluoro-4-[[10-hydroxy-6-methyl-8-oxo-9-[[4-(trifluoromethyl)-2-[6-(trifluoromethyl)pyrimidin-4-yl]phenyl]carbamoyl]-6,7-diazaspiro[4.5]dec-9-en-7-yl]methyl]phenoxy]ethylamino]pentanedioate] — lower, 21%
- C[C@]12CCCN1N(Cc1c(F)cc(OCCCCCCOC[C@@H](O)CO)cc1F)C(=O)C(C(=O)Nc1ccc(C(F)(F)F)cc1-c1ccc(C(F)(F)F)nc1)=C2O [Example 154] — lower, 73%
- COc1cccc(-c2cc(C(F)(F)F)ccc2NC(=O)C2=C(O)[C@@]3(C)CCCN3N(Cc3cccc(F)c3F)C2=O)n1 [Example 93] — lower, 56%
- Cc1c(Cl)ncnc1-c1cc(C(F)(F)F)ccc1NC(=O)C1=C(O)[C@H](C(C)(C)C)N(C)N(Cc2ccc(OCCN3CCOCC3)c(F)c2F)C1=O [Example 276] — lower, 68%
- COCCN1CC(Oc2ccc(CN3C(=O)C(C(=O)Nc4ccc(C(F)(F)F)cc4-c4cc(C(F)(F)F)ncn4)=C(O)C4(CCC4)N3C)c(F)c2F)C1 [Example 406, 6-[[2,3-Difluoro-4-[1-(2-methoxyethyl)azetidin-3-yl]oxyphenyl]methyl]-9-hydroxy-5-methyl-7-oxo-N-[4-(trifluoromethyl)-2-[6-(trifluoromethl)pyrimidin-4-yl]phenyl]-5,6-diazaspiro[3.5]non-8-ene-8-carboxamide] — lower, 27%
- C[C@]12CCCN1N(CCCC(F)(F)F)C(=O)C(C(=O)Nc1ccc(C(F)(F)F)cc1-c1cc(C(F)(F)F)ncn1)=C2O [Example 234, (4aR)-4-Hydroxy-4a-methyl-2-oxo-1-(4,4,4-trifluorobutyl)-N-[4-(trifluoromethyl)-2-[6-(trifluoromethyl)pyrimidin-4-yl]phenyl]-6,7-dihydro-5H-pyrrolo[1,2-b]pyridazine-3-carboxamide] — lower, 73%
- CN1N(Cc2ccc(OCCN3C4CCC3COC4)c(F)c2F)C(=O)C(C(=O)Nc2ccc(C(F)(F)F)cc2-c2cc(C(F)(F)F)ncn2)=C(O)C12CCC2 [Example 340] — lower, 63%
- CCN1[C@@H](C(C)(C)C)C(O)=C(C(=O)Nc2cc(F)c(Br)c(F)c2)C(=O)N1Cc1cccc(F)c1F [Example 246] — lower, 52%
- COC(=O)c1cccc(-c2cc(C(F)(F)F)ccc2NC(=O)C2=C(O)[C@@]3(C)CCCN3N(Cc3cccc(F)c3F)C2=O)c1OC [Example 65] — higher, 98%
- CN1CCC(Oc2ccc(CN3C(=O)C(C(=O)Nc4ccc(C(F)(F)F)cc4-c4cc(C(F)(F)F)ncn4)=C(O)C4(CCC4)N3C)c(F)c2F)CC1 [Example 411] — lower, 32%
- CN1N(Cc2ccc(OCCN3CC(F)(F)C3)c(F)c2F)C(=O)C(C(=O)Nc2ccc(C(F)(F)F)cc2-c2cc(C(F)(F)F)ncn2)=C(O)C12CCCC2 [Example 369] — lower, 43%
- Cc1c(Cl)ncnc1-c1cc(C(F)(F)F)ccc1NC(=O)C1=C(O)[C@@]2(C)CCCN2N(Cc2cccc(F)c2F)C1=O [Example 69] — lower, 74%
- COCCOCCOc1ccc(CN2C(=O)C(C(=O)Nc3ccc(C(F)(F)F)cc3-c3cc(C(F)(F)F)ncn3)=C(O)C3(CCC3)N2C)c(F)c1F [Example 401] — lower, 39%
- C[C@]12CCCN1N(Cc1c(F)cc(C#CC3(O)CCCC3)cc1F)C(=O)C(C(=O)Nc1ccc(C(F)(F)F)cc1-c1ccc(C(F)(F)F)nc1)=C2O [Example 130] — lower, 72%
- C[C@@H]1COC[C@H](C)N1CCOc1ccc(CN2C(=O)C(C(=O)Nc3ccc(C(F)(F)F)cc3-c3cc(C(F)(F)F)ncn3)=C(O)C3(CCC3)N2C)c(F)c1F [Example 344] — lower, 58%
- Cc1c(C#N)ncnc1-c1cc(C(F)(F)F)ccc1NC(=O)C1=C(O)C(C)(C)N(C)N(Cc2cccc(F)c2F)C1=O [Example 311] — lower, 65%
- C[C@]12CCCN1N(Cc1cccc(OC(F)F)c1)C(=O)C(C(=O)Nc1ccc(C(F)(F)F)cc1-c1cc(C(F)(F)F)ncn1)=C2O [Example 177] — higher, 85%

same assay, conditions: 1 µM test compound; 33PO4 uptake into rat small-intestinal BBMVs, 60 seconds; 1 µM

In the case of “6-[[2,3-Difluoro-4-[1-(2-methoxyethyl)azetidin-3-yl]oxyphenyl]methyl]-9-hydroxy-5-methyl-7-oxo-N-[4-(trifluoromethyl)-2-[6-(trifluoromethyl)pyrimidin-4-yl]phenyl]-5,6-diazaspiro[3.5]non-8-ene-8-carboxamide [Example 413]”, the “Rate of uptake inhibition (%) (1 µM)” value is reported as 34%.
